Patent US20250059182A1, “SOS1 INHIBITORS” (Mirati Therapeutics, Inc., priority 2021, published 2025)
Structures can show the parent of a compound that is named as a salt.

Test system: pERK in MKN1 cells
Test: pERK inhibition, In-Cell Western (LI-COR Odyssey), MKN1 cells
Format: cell-based
Details: Homo sapiens, MKN-1, Table B1; MKN1 or H358 cells (table does not say which); 0.5-1 hour incubation; read-out: IC50 (nM), pERK inhibition
Method: This Example illustrates that exemplary compounds of the present invention prevent KRas-mediated GTP nucleotide exchange mediated by SOS1 to inhibit KRas activity thereby inhibiting the generation of the downstream effector pERK.
MKN1 cells (15,000/w) or H358 (30,000/w) were seeded in a black clear flat bottom 96-well cell culture plate (Corning, #3904) and incubated at 37° C. overnight. Assay day 1, cells were dosed with compounds of Formula (I) with a 10 μm starting concentration and serially diluted 3× for a total of 9 concentrations. The cells were incubated for approximately 0.5-1 hour with the compounds solubilized in DMSO at 37° C. Cells were immediately fixed by adding 50 μL of 4% formaldehyde to all wells in a fume hood and the plates were incubated for 20 minutes at room temperature. The formaldehyde was discarded from the plates and 150 μL of ice-cold methanol was added to permeabilize the cells for 10 minutes at −20° C. The methanol was discarded from each of the plates and any liquid remaining in the plate by tapping the plate against paper towels. Cells were then blocked with 150 μL of Odyssey blocking buffer (LI-COR Biosciences #927-50010) using 0.05% Tween for 1 hour at room temperature on a shaker. The blocking buffer was discarded and 50 μL of primary antibodies pERK (cell signaling Technology #9101L; Rabbit, 1:500) and GapDH (Millipore #MAB34; Mouse, 1:5000) diluted in Odyssey blocking buffer was added. The plates were incubated overnight at 4° C. on a shaker.
On Assay day 2, the primary antibody solution was removed. Each plate was washed 3× times with 150 μL of 1×PBST (PBS+0.1% Tween 20) and incubated with 50 μL of secondary antibodies: Anti-Rabbit (LI-COR Biosciences #926-32211) and Anti-Mouse (LI-COR Biosciences #68070) at 1:800 dilution in Odyssey blocking buffer with Tween at room temperature on a shaker for 2 hours (protected from light). The secondary antibody solution as removed and each plate was washed with PBST 3× times. Any liquid remaining was discarded and the plate was imaged using the Licor Odyssey machine according to the manufacturer's instruction, using a set focus length at 3 mm and both 800 nm and 700 nm filters. The GAPDH normalized scan values for each well were divided by the average of vehicle wells to get the % of pERK inhibition. The IC50 values were then calculated with the Graph pad Prism software.

Question: Which IC50 does the source give for `Cc1c(C#N)cccc1[C@@H](C)Nc1nnc(C)c2cnc(N3CCc4nn(C)cc4C3)cc12` [Example P-51, (R)-2-methyl-3-(1-((4-methyl-7-(2-methyl-2,4,6,7-tetrahydro-5H-pyrazolo[4,3-c]pyridin-5-yl)pyrido[3,4-d]pyridazin-1-yl)amino)ethyl)benzonitrile] here?
Answer: 120 nM

Question: How did the IC50 turn out when `Cc1c(C#N)cccc1[C@@H](C)Nc1nnc(C)c2c(C)nc(N3CCN(C)CC3)cc12` [Example P-189, (R)-3-(1-((4,5-dimethyl-7-(4-methylpiperazin-1-yl)pyrido[3,4-d]pyridazin-1-yl)amino)ethyl)-2-methylbenzonitrile] was run?
Answer: 57 nM

Question: Which IC50 does the source give for `Cc1c(C#N)cccc1[C@@H](C)Nc1nnc(C)c2cnc(N3CCC34CN(CCCF)C4)cc12` [Example P-228, (R)-3-(1-((7-(6-(3-fluoropropyl)-1,6-diazaspiro[3.3]heptan-1-yl)-4-methylpyrido[3,4-d]pyridazin-1-yl)amino)ethyl)-2-methylbenzonitrile] here?
Answer: 68.4 nM

Same assay, conditions: Homo sapiens, MKN-1, Table B; MKN1 or H358 cells (table does not say which); 0.5-1 hour incubation; read-out: IC50 (nM), pERK inhibition

Question: Which IC50 does the source give for `Cc1c(C#N)cccc1[C@@H](C)Nc1nnc(C)c2cc(Cl)c(N3CCOCC3)cc12` [7-2, (R)-3-(1-((6-chloro-4-methyl-7-morpholinophthalazin-1-yl)amino)ethyl)-2-methylbenzonitrile] here?
Answer: 286 nM

Question: For `Cc1nnc(N[C@H](C)c2cccc(C(F)(F)F)c2F)c2cc(N(C)[C@H]3CCN(C)C3)ncc12` [Example 1-28, N^1-((R)-1-(2-fluoro-3-(trifluoromethyl)phenyl)ethyl)-N^7,4-dimethyl-N^7-((S)-1-methylpyrrolidin-3-yl)pyrido[3,4-d]pyridazine-1,7-diamine], which IC50 is on record?
Answer: 52.3 nM

Question: `Cc1nnc(N[C@H](C)c2cccc(C(F)(F)F)c2F)c2cc(N(C)[C@@H]3CCN(C)C3)ncc12` [Example 1-29, N^1-((R)-1-(2-fluoro-3-(trifluoromethyl)phenyl)ethyl)-N^7,4-dimethyl-N^7-((R)-1-methylpyrrolidin-3-yl)pyrido[3,4-d]pyridazine-1,7-diamine] was tested. Which IC50 did it give?
Answer: 41 nM

Question: For `Cc1c(C#N)cccc1[C@@H](C)Nc1nnc(C)c2cnc(N[C@H]3CCN(C)C3)cc12` [Example 1-30, 2-methyl-3-((R)-1-((4-methyl-7-(((S)-1-methylpyrrolidin-3-yl)amino)pyrido[3,4-d]pyridazin-1-yl)amino)ethyl)benzonitrile], which IC50 is on record?
Answer: 250 nM

Question: `Cc1c(C#N)cccc1[C@@H](C)Nc1nnc(C)c2cnc(N[C@@H]3CCN(C)C3)cc12` [Example 1-31, 2-methyl-3-((R)-1-((4-methyl-7-(((R)-1-methylpyrrolidin-3-yl)amino)pyrido[3,4-d]pyridazin-1-yl)amino)ethyl)benzonitrile] was tested. Which IC50 did it give?
Answer: 128 nM

Question: How did the IC50 turn out when `Cc1c(C#N)cccc1[C@@H](C)Nc1nnc(C)c2cnc(N3CCN(C)C(=O)C3)cc12` [Example 1-45, (R)-2-methyl-3-(1-((4-methyl-7-(4-methyl-3-oxopiperazin-1-yl)pyrido[3,4-d]pyridazin-1-yl)amino)ethyl)benzonitrile] was run?
Answer: 99 nM

Question: For `Cc1c(C#N)cccc1[C@@H](C)Nc1nnc(C)c2cnc(N3C[C@@H](C)N(C)[C@@H](C)C3)cc12` [Example 1-67, 2-methyl-3-((R)-1-((4-methyl-7-((3R,5S)-3,4,5-trimethylpiperazin-1-yl)pyrido[3,4-d]pyridazin-1-yl)amino)ethyl)benzonitrile], which IC50 is on record?
Answer: 121 nM

Question: How did the IC50 turn out when `Cc1c(C#N)cccc1[C@@H](C)Nc1nnc(C)c2cnc(N3C[C@H](C)N(C)[C@@H](C)C3)cc12` [Example 1-68, 2-methyl-3-((R)-1-((4-methyl-7-((3S,5S)-3,4,5-trimethylpiperazin-1-yl)pyrido[3,4-d]pyridazin-1-yl)amino)ethyl)benzonitrile] was run?
Answer: 61 nM

Question: `Cc1c(C#N)cccc1[C@@H](C)Nc1nnc(C)c2cnc(N3C[C@@H]4C[C@H]3CN4)cc12` [Example 1-75, 3-((R)-1-((7-((1S,4S)-2,5-diazabicyclo[2.2.1]heptan-2-yl)-4-methylpyrido[3,4-d]pyridazin-1-yl)amino)ethyl)-2-methylbenzonitrile] was tested. Which IC50 did it give?
Answer: 590 nM

Question: For `Cc1c(C#N)cccc1[C@@H](C)Nc1nnc(C)c2cnc(N(C)[C@@H]3CCN(C(C)C)C3)cc12` [Example 1-78, 3-((R)-1-((7-(((R)-1-isopropylpyrrolidin-3-yl)(methyl)amino)-4-methylpyrido[3,4-d]pyridazin-1-yl)amino)ethyl)-2-methylbenzonitrile], which IC50 is on record?
Answer: 53.9 nM

Question: With `Cc1c(C#N)cccc1[C@@H](C)Nc1nnc(C)c2cnc(N(C)[C@H]3CCN(C(C)C)C3)cc12` [Example 1-79, 3-((R)-1-((7-(((S)-1-isopropylpyrrolidin-3-yl)(methyl)amino)-4-methylpyrido[3,4-d]pyridazin-1-yl)amino)ethyl)-2-methylbenzonitrile] as the molecule, how does the IC50 read?
Answer: 75.2 nM

Question: How did the IC50 turn out when `Cc1c(C#N)cccc1[C@@H](C)Nc1nnc(C)c2cnc(N3CC4(COC4)C3)cc12` [Example 1-80, (R)-2-methyl-3-(1-((4-methyl-7-(2-oxa-6-azaspiro[3.3]heptan-6-yl)pyrido[3,4-d]pyridazin-1-yl)amino)ethyl)benzonitrile] was run?
Answer: 60.9 nM

Question: Which IC50 does the source give for `Cc1nnc(N[C@H](C)c2ccc(C#N)cc2F)c2cc(N3CCN(C)CC3)ncc12` [Example 1-98, (R)-3-fluoro-4-(1-((4-methyl-7-(4-methylpiperazin-1-yl)pyrido[3,4-d]pyridazin-1-yl)amino)ethyl)benzonitrile] here?
Answer: 186 nM

Question: With `Cc1c(C#N)cccc1[C@@H](C)Nc1nnc(C)c2cc(F)c(N3CC(C)(N(C)C)C3)cc12` [Example 4-8, (R)-3-(1-((7-(3-(dimethylamino)-3-methylazetidin-1-yl)-6-fluoro-4-methylphthalazin-1-yl)amino)ethyl)-2-methylbenzonitrile] as the molecule, how does the IC50 read?
Answer: 109 nM

Question: `Cc1c(C#N)cccc1[C@@H](C)Nc1nnc(C)c2cc(F)c(N3CCOCC3)cc12` [Example 4-12, (R)-3-(1-((6-fluoro-4-methyl-7-morpholinophthalazin-1-yl)amino)ethyl)-2-methylbenzonitrile] was tested. Which IC50 did it give?
Answer: 120 nM

Question: Which IC50 does the source give for `COc1cc2c(C)nnc(N[C@H](C)c3cccc(C#N)c3C)c2cc1O[C@H]1CCOC1` [Example 6-15, 3-((R)-1-((6-methoxy-4-methyl-7-(((S)-tetrahydrofuran-3-yl)oxy)phthalazin-1-yl)amino)ethyl)-2-methylbenzonitrile] here?
Answer: 165 nM

Same assay, conditions: Homo sapiens, MKN-1, read-out: IC50 (nM), pERK inhibition

Question: How did the IC50 turn out when `COc1cc2cnnc(N[C@H](C)c3cccc4ccccc34)c2cc1OC` [Example P-210, (R)-6,7-dimethoxy-N-(1-(naphthalen-1-yl)ethyl)phthalazin-1-amine formic acid salt] was run?
Answer: > 10000 nM

Question: How did the IC50 turn out when `Cc1c(Br)cccc1[C@@H](C)Nc1nnc(C)c2cnc(N3CCOCC3)cc12` [Example P-213, (R)-N-(1-(3-bromo-2-methylphenyl)ethyl)-4-methyl-7-morpholinopyrido[3,4-d]pyridazin-1-amine formic acid salt] was run?
Answer: 114 nM

Target: T1, recombinant human SOS1 polypeptide (amino acids 560-1049) (Homo sapiens, UniProt Q07889)
T1 construct: corresponding to amino acids 560-1049, expressed in E. Coli; made in house; host or cells: E. coli
T1 sequence (Q07889 560-1049): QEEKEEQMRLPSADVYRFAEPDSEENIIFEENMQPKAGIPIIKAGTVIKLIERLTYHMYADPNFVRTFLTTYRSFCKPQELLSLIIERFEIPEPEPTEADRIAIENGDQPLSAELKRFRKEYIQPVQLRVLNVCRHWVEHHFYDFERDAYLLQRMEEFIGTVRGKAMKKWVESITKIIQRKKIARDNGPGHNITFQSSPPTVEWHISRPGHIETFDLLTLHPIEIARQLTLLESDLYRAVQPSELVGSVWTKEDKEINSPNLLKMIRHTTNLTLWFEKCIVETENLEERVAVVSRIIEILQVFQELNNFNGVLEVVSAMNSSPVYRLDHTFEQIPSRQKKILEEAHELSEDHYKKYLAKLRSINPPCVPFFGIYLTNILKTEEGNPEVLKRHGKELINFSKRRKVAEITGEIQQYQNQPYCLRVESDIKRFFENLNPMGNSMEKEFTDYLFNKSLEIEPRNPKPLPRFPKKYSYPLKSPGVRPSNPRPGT
Test: HTRF displacement assay: inhibition of labeled tracer binding to SOS1
Details: Table A, Morrison equation for competitive binding

Question: Which Ki does the source give for `Cc1nnc(N[C@H](C)c2cccc(C(F)F)c2F)c2cc(N3CCN(C)CC3)c(F)cc12` [Example 4-20, (R)-N-(1-(3-(difluoromethyl)-2-fluorophenyl)ethyl)-6-fluoro-4-methyl-7-(4-methylpiperazin-1-yl)phthalazin-1-amine] here?
Answer: 0.547 nM

Question: With `Cc1nnc(N[C@H](C)c2cccc(C(C)(F)F)c2F)c2cc(N3CCN(C)CC3)c(C#N)cc12` [Example 6-21, (R)-1-((1-(3-(1,1-difluoroethyl)-2-fluorophenyl)ethyl)amino)-4-methyl-7-(4-methylpiperazin-1-yl)phthalazine-6-carbonitrile] as the molecule, how does the Ki read?
Answer: 1.05 nM
